“And” between values parts separate entries of the source, which are not always exact repeats. Equal entries are not always repeated. Toxic doses and inconclusive results are not listed. No stated cut-off is given here; in the data, active means T/C of 150% or more; inactive means T/C below 125%.
System: L1210 leukemia ip in BDF1 mice, survival T/C
Assay: NCI In Vivo Anticancer Drug Screen. Data for tumor model L1210 Leukemia (intraperitoneal) in B6D2F1 (BDF1) mice
Conditions: endpoint: mean survival time, higher = longer survival
Summary of the method: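 Transplantable tumor model; survival measured in treated vs vehicle control mice. Value = treated/control.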

[1] = dose: 100.0 mg/kg/injection, schedule: Q04DX002 (ip), vehicle: Klucel (hydroxypropylcellulose) (HPC)
[2] = dose: 100.0 mg/kg/injection, schedule: Q01DX001 (ip), vehicle: saline with Tween-80
[3] = dose: 200.0 mg/kg/injection, schedule: Q01DX001 (ip), vehicle: saline with Tween-80
[4] = dose: 100.0 mg/kg/injection, schedule: Q01DX001 (ip), vehicle: carboxymethylcellulose (CMC)
[5] = dose: 200.0 mg/kg/injection, schedule: Q01DX001 (ip), vehicle: carboxymethylcellulose (CMC)
[6] = dose: 400.0 mg/kg/injection, schedule: Q01DX001 (ip), vehicle: carboxymethylcellulose (CMC)
[7] = dose: 100.0 mg/kg/injection, schedule: Q01DX001 (ip), vehicle: Klucel (hydroxypropylcellulose) (HPC)
[8] = dose: 200.0 mg/kg/injection, schedule: Q01DX001 (ip), vehicle: Klucel (hydroxypropylcellulose) (HPC)
[9] = dose: 100.0 mg/kg/injection, schedule: Q04DX003 (ip), vehicle: saline
[10] = dose: 25.0 mg/kg/injection, schedule: Q01DX009 (ip), vehicle: Klucel (hydroxypropylcellulose) (HPC)

Measured: T/C

CCOC(=O)NC1c2ccccc2Oc2ccccc21
inactive: dose: 75.0 mg/kg/injection, schedule: Q01DX009 (ip), vehicle: saline 115 % of control | [1] 102 % of control | dose: 150.0 mg/kg/injection, schedule: Q01DX009 (ip), vehicle: saline 103 % of control | dose: 200.0 mg/kg/injection, schedule: Q04DX002 (ip), vehicle: Klucel (hydroxypropylcellulose) (HPC) 105 % of control | dose: 300.0 mg/kg/injection, schedule: Q01DX009 (ip), vehicle: saline 111 % of control | dose: 400.0 mg/kg/injection, schedule: Q04DX002 (ip), vehicle: Klucel (hydroxypropylcellulose) (HPC) 102 % of control

CC(C)(C)c1cc(C(C)(C)C)c(O)c(C(C)(C)C)c1
inactive: [2] 91 % of control | dose: 100.0 mg/kg/injection, schedule: Q01DX009 (ip), vehicle: saline with Tween-80 92 % of control | dose: 100.0 mg/kg/injection, schedule: Q04DX003 (ip), vehicle: saline with Tween-80 98 % of control | [3] 95 % of control | dose: 200.0 mg/kg/injection, schedule: Q01DX009 (ip), vehicle: saline with Tween-80 96 % of control | dose: 200.0 mg/kg/injection, schedule: Q04DX003 (ip), vehicle: saline with Tween-80 98 % of control | dose: 400.0 mg/kg/injection, schedule: Q01DX001 (ip), vehicle: saline with Tween-80 87 % of control | dose: 400.0 mg/kg/injection, schedule: Q01DX009 (ip), vehicle: saline with Tween-80 93 % of control | dose: 400.0 mg/kg/injection, schedule: Q04DX003 (ip), vehicle: saline with Tween-80 93 % of control

Cc1c(-c2nc(SCC(=O)NN)n[nH]2)no[n+]1[O-]
inactive: dose: 25.0 mg/kg/injection, schedule: Q04DX002 (ip), vehicle: Klucel (hydroxypropylcellulose) (HPC) 102 % of control | dose: 50.0 mg/kg/injection, schedule: Q04DX002 (ip), vehicle: Klucel (hydroxypropylcellulose) (HPC) 91 % of control | [1] 98 % of control

O=C(O)c1ccccc1C(=O)OC1C=CC2CCC1C2 (stereo not drawn)
inactive: [4] 112 % of control | [5] 90 % of control | [6] 96 % of control

c1ccc2c(c1)ccc1c3ccc4ccccc4c3[nH]c21
inactive: dose: 100.0 mg/kg/injection, schedule: Q01DX001 (ip), vehicle: saline 95 % of control | dose: 200.0 mg/kg/injection, schedule: Q01DX001 (ip), vehicle: saline 90 % of control | dose: 400.0 mg/kg/injection, schedule: Q01DX001 (ip), vehicle: saline 94 % of control

CCOC1C(Br)=Cc2ccccc2N1C(=O)OC (stereo not drawn)
inactive: [7] 101 % of control | [8] 97 % of control | dose: 400.0 mg/kg/injection, schedule: Q01DX001 (ip), vehicle: Klucel (hydroxypropylcellulose) (HPC) 101 % of control

NC1CC(N)CC(N)C1 (stereo not drawn)
inactive: dose: 25.0 mg/kg/injection, schedule: Q04DX003 (ip), vehicle: saline 92 % of control | dose: 50.0 mg/kg/injection, schedule: Q04DX003 (ip), vehicle: saline 99 % of control | [9] 86 % of control and 91 % of control

Nc1ccccc1-c1ccccc1
inactive: dose: 75.0 mg/kg/injection, schedule: Q01DX001 (ip), vehicle: saline 112 % of control

O=C(NCCCOc1ccc([N+](=O)[O-])cc1Cl)Nc1ccc(S(=O)(=O)F)cc1
inactive: dose: 75.0 mg/kg/injection, schedule: Q01DX001 (ip), vehicle: carboxymethylcellulose (CMC) 98 % of control | [9] 103 % of control | dose: 150.0 mg/kg/injection, schedule: Q01DX001 (ip), vehicle: carboxymethylcellulose (CMC) 89 % of control | dose: 200.0 mg/kg/injection, schedule: Q04DX003 (ip), vehicle: saline 103 % of control | dose: 300.0 mg/kg/injection, schedule: Q01DX001 (ip), vehicle: carboxymethylcellulose (CMC) 87 % of control | dose: 400.0 mg/kg/injection, schedule: Q04DX003 (ip), vehicle: saline 105 % of control

COC(=O)NCC1OC(n2cnc3c(N)ncnc32)C(O)C1O (stereo not drawn)
inactive: dose: 100.0 mg/kg/injection, schedule: Q01DX005 (ip), vehicle: saline 92 % of control | dose: 200.0 mg/kg/injection, schedule: Q01DX005 (ip), vehicle: saline 94 % of control

Clc1ccc2nsnc2c1
inactive: [7] 105 % of control | [8] 114 % of control

CC(=O)Nc1ccc(S(C)(=O)=O)cc1I
inactive: [4] 93 % of control | [5] 96 % of control | [6] 91 % of control

Nc1nc2ncc(CNc3ccc(CCC(=O)NC(CCC(=O)O)C(=O)O)cc3)nc2c(=O)[nH]1 (stereo not drawn)
inactive: dose: 50.0 mg/kg/injection, schedule: Q01DX001 (ip), vehicle: saline with Tween-80 108 % of control | [2] 100 % of control | [3] 101 % of control

O=C(/C=C/C=[N+](/[O-])O)c1cncc(F)c1
inactive: dose: 100.0 mg/kg/injection, schedule: Q04DX002 (ip), vehicle: saline 93 % of control | dose: 200.0 mg/kg/injection, schedule: Q04DX002 (ip), vehicle: saline 101 % of control | dose: 400.0 mg/kg/injection, schedule: Q04DX002 (ip), vehicle: saline 93 % of control

COc1ccccc1-n1c(O)c(N=Nc2ccccc2C)c(=O)n(-c2ccc(C)cc2)c1=S
inactive: dose: 37.5 mg/kg/injection, schedule: Q01DX001 (ip), vehicle: Klucel (hydroxypropylcellulose) (HPC) 102 % of control | dose: 75.0 mg/kg/injection, schedule: Q01DX001 (ip), vehicle: Klucel (hydroxypropylcellulose) (HPC) 99 % of control | dose: 150.0 mg/kg/injection, schedule: Q01DX001 (ip), vehicle: Klucel (hydroxypropylcellulose) (HPC) 89 % of control

CO[C@H]1/C=C/O[C@@]2(C)Oc3c(C)c(O)c4c(O)c(c(/C=N/N5CCNCC5)c(O)c4c3C2=O)NC(=O)/C(C)=C\C=C\[C@H](C)[C@H](O)[C@@H](C)[C@@H](O)[C@@H](C)C(OC(C)=O)[C@@H]1C (stereo partly drawn)
inactive: dose: 25.0 mg/kg/injection, schedule: Q01DX001 (ip), vehicle: water 98 % of control | [10] 100 % of control | dose: 50.0 mg/kg/injection, schedule: Q01DX001 (ip), vehicle: water 102 % of control | dose: 50.0 mg/kg/injection, schedule: Q01DX009 (ip), vehicle: Klucel (hydroxypropylcellulose) (HPC) 94 % of control | dose: 100.0 mg/kg/injection, schedule: Q01DX001 (ip), vehicle: water 101 % of control | dose: 100.0 mg/kg/injection, schedule: Q01DX009 (ip), vehicle: Klucel (hydroxypropylcellulose) (HPC) 94 % of control | dose: 200.0 mg/kg/injection, schedule: Q01DX001 (ip), vehicle: water 106 % of control | dose: 200.0 mg/kg/injection, schedule: Q01DX009 (ip), vehicle: Klucel (hydroxypropylcellulose) (HPC) 100 % of control | dose: 400.0 mg/kg/injection, schedule: Q01DX001 (ip), vehicle: water 102 % of control

Clc1c(C(Cl)(Cl)Cl)nc2ccccc2c1Br
inactive: dose: 6.25 mg/kg/injection, schedule: Q01DX009 (ip), vehicle: Klucel (hydroxypropylcellulose) (HPC) 101 % of control | dose: 12.5 mg/kg/injection, schedule: Q01DX009 (ip), vehicle: Klucel (hydroxypropylcellulose) (HPC) 97 % of control | [10] 97 % of control

CS(=O)(=O)n1c(C(O)c2ccccc2)nc2ccccc21 (stereo not drawn)
inactive: [4] 100 % of control | [5] 94 % of control | [6] 89 % of control

CC(C)(C)C1COP(=S)(C(C)(C)C)OC1 (stereo not drawn)
inactive: dose: 100.0 mg/kg/injection, schedule: Q04DX003 (ip), vehicle: Klucel (hydroxypropylcellulose) (HPC) 102 % of control | dose: 200.0 mg/kg/injection, schedule: Q04DX003 (ip), vehicle: Klucel (hydroxypropylcellulose) (HPC) 93 % of control

CCCCCCCCCCC(=O)N1CCOCC1
inactive: dose: 12.5 mg/kg/injection, schedule: Q04DX003 (ip), vehicle: saline with Tween-80 98 % of control | dose: 25.0 mg/kg/injection, schedule: Q04DX003 (ip), vehicle: saline with Tween-80 95 % of control | dose: 50.0 mg/kg/injection, schedule: Q04DX003 (ip), vehicle: saline with Tween-80 101 % of control
